Test results reported in PubChem BioAssay AID977621 (Broad Institute, 2014).
Records with an inconclusive call do not appear. Active and inactive are the calls of the source.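 How the source made its calls: active means Wild-type ribosome reporter drop at least double the humanized mutant ribosome reporter drop, growth loss under a set limit; inconclusive means no clear call, values can overlap the other calls; inactive means the rest.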

System: E. coli wild-type GFP strain growth, fluorescence, 24 h
Experiment: wild-type E. coli growth inhibition versus H69 humanized strain – H69 mutant RFP, wild-type GFP, cherry-pick, dose response (AID 977621);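 further: wild-type GFP and H69 mutant RFP strains grown together 50/50 in each well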
[1] = E. coli mixed culture, 24 h, measured here: total growth OD600, test 2
[2] = measured here: total growth OD600, test 2

Row | Compound | AC50 | AC50 [1] | AC50 [2]
1 | CCCCCCCNC(=O)c1ccc(N2CCC3(CC2)OCCO3)c([N+](=O)[O-])c1 | > 100 µM (inactive) | 35.4 µM | –
2 | O=C(CN1C(=O)c2ccccc2C1=O)Nc1cccc(S(=O)(=O)Nc2ccccc2Cl)c1 | > 100 µM (inactive) | – | –
3 | C[C@@H]1NS(=O)(=O)c2c(F)cccc2O[C@@H]1c1ccccc1 | > 100 µM (inactive) | – | –
4 | CC1(C(=O)NS(=O)(=O)c2cccc(C#N)c2)CCN1C(=O)C1(c2ccc(Cl)cc2)CCC1 (configuration not stated) | > 100 µM (inactive) | > 100 µM | –
5 | COc1ccc(NC(=O)Nc2cccc3c2O[C@H](CN(C)S(=O)(=O)c2ccc(Cl)cc2)[C@@H](C)CN([C@H](C)CO)C3=O)cc1 | > 100 µM (inactive) | – | –
6 | CCOC(=O)c1c(NC(=O)CN2CCC(C)CC2)sc(C)c1C | – | 48.5 µM | –
7 | O=C(CN(CCO)c1ccccc1)Nc1cccc(S(=O)(=O)N2CCCC2)c1 | > 100 µM (inactive) | – | –
8 | Cc1cc(C(=O)NCCC2=CCCCC2)ccc1[N+](=O)[O-] | > 100 µM (inactive) | – | –
9 | O=C(NCCc1ccc(Cl)cc1)c1ccc2nc[nH]c2c1 | > 100 µM (inactive) | – | –
10 | COc1ccc(-c2cc(C(=O)Nc3ccc(C(N)=O)cc3)c3ccccc3n2)cc1OC | – | > 100 µM | –
11 | O=C(CN1CCN(S(=O)(=O)c2ccc(Cl)cc2)CC1)Nc1ccc2c(c1)CCC2 | – | > 100 µM | –
12 | COc1cc(OC)cc(C(=O)Nc2ccc(S(=O)(=O)Nc3cnc4ccccc4n3)cc2)c1 | – | 33 µM | –
13 | COc1ccc(OCC(O)CNS(=O)(=O)c2cccc(Cl)c2)cc1 (configuration not stated) | – | > 100 µM | –
14 | C[C@H](CO)N1C[C@H](C)[C@@H](CN(C)Cc2ccncc2)OCc2ccccc2-c2c(n(C)c3ccccc23)C1=O | – | 40.2 µM | –
15 | Cc1ccc2nc(SCC(=O)c3ccc(O)cc3O)[nH]c2c1 | > 100 µM (inactive) | – | –
16 | COc1cc2c(cc1OC)CN(c1ccc([N+](=O)[O-])c(C(F)(F)F)c1)CC2 | > 100 µM (inactive) | – | > 100 µM
17 | COc1cc(-c2cc3nc(NCCc4ccncc4)ccn3n2)cc(OC)c1OC | > 100 µM (inactive) | – | –
18 | CCOC(=O)c1cc(C)nc(N2CCCCC2)c1C#N | – | > 100 µM | –
19 | O=C(COC(=O)CCSc1ccc(F)cc1)NCc1ccc(F)cc1 | > 100 µM (inactive) | – | –
20 | CCN(c1ccccc1)S(=O)(=O)c1ccc(Cl)c(NC(=O)CSc2n[nH]c(N)n2)c1 | > 100 µM (inactive) | – | –
21 | O=C(CCC(=O)N1CCN(c2ccc(F)cc2)CC1)N1CCN(c2ccc(F)cc2)CC1 | > 100 µM (inactive) | > 100 µM | –
22 | CN(CCOc1ccccc1)C(=O)c1ccc(OC2CCN(C(=O)C3CC3)CC2)cc1 | > 100 µM (inactive) | – | –
23 | COc1ccc(OC)c(NC(=O)COC(=O)C2CCN(C(=O)c3ccc(Cl)cc3)CC2)c1 | – | > 100 µM | –

Row | Compound | AC50 | AC50 [1] | AC50 [2]
24 | COc1ccccc1Cn1c(=S)[nH]c2ccc(F)cc2c1=O | > 100 µM (inactive) | – | –
25 | COc1ccc(CCNc2nc(-c3ccncc3)cs2)cc1OC | > 100 µM (inactive) | – | –
26 | O=C(COC(=O)c1cccc(S(=O)(=O)N2CCCCC2)c1)NCc1cccc(Cl)c1 | > 100 µM (inactive) | – | –
27 | Fc1cccc(Cl)c1CSc1ccc(-c2ccco2)nn1 | – | > 100 µM | –
28 | Cc1cc(C)c2sc(N(CCN(C)C)C(=O)c3c(F)cccc3F)nc2c1 | > 100 µM (inactive) | > 100 µM | –
29 | COc1cc(SC)ccc1C(=O)N1CCN(c2ccccc2F)CC1 | > 100 µM (inactive) | – | –
30 | CC(OC(=O)COc1ccccc1)C(=O)NC1CCCC1 (configuration not stated) | > 100 µM (inactive) | > 100 µM | –
31 | Cc1ccc(-c2cc[n+](Cc3ccccc3)cc2)cc1 | – | > 100 µM | –
32 | Cc1nn(CC(=O)OCCOc2ccc(Br)cc2)c(C)c1[N+](=O)[O-] | – | > 100 µM | –
33 | COc1ccc(-c2cn3c(C)c(C(=O)Nc4cccc(C)n4)sc3n2)cc1 | > 100 µM (inactive) | – | –
34 | Cc1noc(C)c1NC(=O)Nc1ccc2c(c1)C(=O)N([C@@H](C)CO)C[C@H](C)[C@H](CN(C)C(=O)Nc1ccc3c(c1)OCO3)OCCCC[C@H](C)O2 | > 100 µM (inactive) | – | –
35 | CCN(CC(=O)Nc1ccccc1OC)CC(=O)Nc1c(Cl)ccc(C)c1Cl | > 100 µM (inactive) | – | –
36 | Cc1cc(CNC(=O)COc2ccc(C)c(C)c2)c2ccccc2n1 | > 100 µM (inactive) | – | –
37 | CCOc1ccc(S(=O)(=O)Nc2ccc(S(=O)(=O)N3CCCC3)cc2)cc1 | > 100 µM (inactive) | – | –
38 | CSc1ccccc1OCc1cc(C(=O)N(C)Cc2nonc2C)no1 | – | > 100 µM | –
39 | O=C(NCc1cccnc1)C1CCN(S(=O)(=O)c2cc([N+](=O)[O-])ccc2Cl)CC1 | – | > 100 µM | –
40 | CC(OC(=O)CCc1c[nH]c2ccccc12)C(=O)c1ccccc1 (configuration not stated) | > 100 µM (inactive) | 46.5 µM | –
41 | CCN(CC)S(=O)(=O)c1cc(NS(=O)(=O)c2cccc(Cl)c2Cl)ccc1C | > 100 µM (inactive) | 33.4 µM | –
42 | NC(=O)CSc1nc2cc([N+](=O)[O-])ccc2n1-c1cccc(C(F)(F)F)c1 | > 100 µM (inactive) | – | –
43 | CC1CCCC(NC(=O)COC(=O)[C@@H]2CC(O)CN2S(=O)(=O)c2ccc3c(c2)OCCO3)C1C (some centres not stated) | – | > 100 µM | –
44 | CCc1cccc(NC(=O)CCC(=O)N2CCSc3ccccc32)c1 | > 100 µM (inactive) | 47.6 µM | –
45 | Cc1ccc(C(=O)C2CCN(CC(=O)Nc3nc(C)cs3)CC2)cc1 | > 100 µM (inactive) | 7.66 µM | –
46 | Cc1cccc(OCc2nnc(SCC(=O)Nc3ncc(C)s3)o2)c1 | > 100 µM (inactive) | > 100 µM | –

Row | Compound | AC50 | AC50 [1] | AC50 [2]
47 | CC1Cc2ccccc2N1C(=O)CN1C(=O)NC(C)(CCc2ccccc2)C1=O (configuration not stated) | – | > 100 µM | –
48 | O=C(CC(=O)c1cccs1)c1ccncc1 | > 100 µM (inactive) | – | –
49 | Cc1cc(C)c(S(=O)(=O)NCCOc2ccccc2)c(C)c1-n1cnnn1 | > 100 µM (inactive) | – | –
50 | O=C(NCc1nnc(SCc2ccccc2)n1-c1ccccc1)C12CC3CC(CC(C3)C1)C2 | > 100 µM (inactive) | 38.6 µM | –
51 | Oc1ccc2c3c1OC1c4oc5ccccc5c4C[C@@]4(O)[C@@H](C2)N(CC2CC2)CC[C@]314 (some centres not stated) | > 100 µM (inactive) | – | –
52 | O=C(Cc1ccc(Br)cc1)Nc1cccc(-c2cn3c(n2)SCC3)c1 | – | > 100 µM | –
53 | O=C(Cc1coc2cc(O)ccc12)N1CCN(S(=O)(=O)c2ccc(Br)cc2)CC1 | > 100 µM (inactive) | 42.2 µM | –
54 | COc1cc(-c2ccc(N3C(c4ccsc4)=Cc4ccc(F)cc4C3c3c[nH]c4ccc(C#N)cc34)cc2)cc(OC)c1OC (configuration not stated) | – | > 100 µM | –
55 | NS(=O)(=O)c1cccc(NC(=O)CSc2nnc(-c3ccccc3F)n2C2CC2)c1 | > 100 µM (inactive) | – | –
56 | CCN(CC)CCN(C(=O)c1ccc2c(c1)CCCC2)c1nc2ccc(F)cc2s1 | – | 32.5 µM | –
57 | COc1cccc(-c2ccc([C@@H]3[C@H](CO)N4CCCCN(S(=O)(=O)c5cccs5)C[C@@H]34)cc2)c1 | > 100 µM (inactive) | 33.5 µM | –
58 | Fc1cccc(CCN2C(=S)NC[C@@H]2CC2CCCCC2)c1 | > 100 µM (inactive) | 6.09 µM | –
59 | Cc1cc(NC(=O)CN2CCN(c3cccc(Cl)c3)CC2)no1 | > 100 µM (inactive) | – | –
60 | CN(C)S(=O)(=O)N1CCN(c2ccccc2Cl)CC1 | – | > 100 µM | –
61 | CCOc1ccc(OCc2cccc(C(=O)O)c2)cc1 | > 100 µM (inactive) | – | –
62 | CCC(=O)N(CCC(c1ccco1)C(C)C)Cc1ccccc1 (configuration not stated) | > 100 µM (inactive) | – | –
63 | CCOC(=O)c1[nH]c2ccccc2c1NC(=O)c1ccc(Br)o1 | > 100 µM (inactive) | – | –
64 | CSc1nc(SCCN(C)C)c2c3c(sc2n1)COC(C)(C)C3 | > 100 µM (inactive) | > 100 µM | –
65 | Cc1cc(Cl)ccc1OCCCC(=O)OCC(N)=O | – | > 100 µM | –
66 | Cc1ccc(C(=O)NCC(=O)OCC(=O)Nc2cccc(S(=O)(=O)N3CCCC3)c2)cc1C | – | > 100 µM | –
67 | CC(C)N1CC2(CC(c3ccccc3C(F)(F)F)=NO2)CN1C(=O)c1ccco1 (configuration not stated) | > 100 µM (inactive) | – | –
68 | Cc1cc(C(=O)COC(=O)CNC(=O)c2ccccc2)c(C)n1CC1CCCO1 (configuration not stated) | – | > 100 µM | –
69 | Cc1ccc(C2NC(c3ccc(C)cc3)C(C)C(=O)C2C)cc1 (configuration not stated) | – | 47.8 µM | –

Row | Compound | AC50 | AC50 [1] | AC50 [2]
70 | CCOc1ccccc1C(=O)OCC(=O)NCCc1ccc(OC)cc1 | > 100 µM (inactive) | – | –
71 | Cc1nc(N2CCCCC2)sc1C(=O)c1ccc(SCCO)c([N+](=O)[O-])c1 | > 100 µM (inactive) | 34.5 µM | –
72 | COc1ccc(C2=Nc3ccccc3NC(=O)C2N(C(=O)c2ccnc3ccccc23)c2ccccc2)cc1 (configuration not stated) | > 100 µM (inactive) | 34 µM | –
73 | CC(C)(C)c1ccc(N2C(=O)CSC2c2cccnc2)cc1 (configuration not stated) | – | > 100 µM | –
74 | C=CCn1c(-c2cc3cccc(OC)c3o2)n[nH]c1=S | > 100 µM (inactive) | – | –
75 | COc1ccccc1NC(=O)Cn1cc(C(=O)c2ccco2)c2ccccc21 | > 100 µM (inactive) | 31.3 µM | –
76 | COc1ccc(-c2csc(C)n2)cc1Br | – | > 100 µM | –
77 | C=CCn1c(-c2sc(-c3ccccc3)nc2C)n[nH]c1=S | > 100 µM (inactive) | – | –
78 | O=C(Cn1cc(C(=O)c2ccco2)c2ccccc21)Nc1ccccc1F | > 100 µM (inactive) | – | –
79 | COc1ccc(OC)c(S(=O)(=O)Nc2cccc3ccc(O)cc23)c1 | – | > 100 µM | –
80 | OC[C@H]1[C@H](c2ccc(-c3ccc(F)cc3)cc2)[C@@H]2CN(Cc3ccncc3)CCCCN12 | > 100 µM (inactive) | – | –
81 | COc1ccc(OC)c(S(=O)(=O)Nc2cccc3ccccc23)c1 | > 100 µM (inactive) | – | –
82 | C[C@@H]1CN([C@@H](C)CO)C(=O)c2cc(NC(=O)Nc3cccc4ccccc34)ccc2O[C@@H](C)CCCCO[C@@H]1CN(C)C | – | > 100 µM | –
83 | COCC(C)NC(=O)c1nn(Cc2ccccc2)c(=O)c2ccccc12 (configuration not stated) | – | 28.2 µM | –
84 | Cc1c(-c2cccc(Cl)c2)nc2ccccc2c1C(=O)N1CCC2(CC1)OCCO2 | > 100 µM (inactive) | – | > 100 µM
85 | COc1ccccc1Cn1c(=S)[nH]c2ccccc2c1=O | > 100 µM (inactive) | – | –
86 | COc1cccc(NC(=O)COC(=O)Cc2ccc(Cl)cc2)c1 | – | > 100 µM | –
87 | COC(=O)c1cc2ccccc2n1S(=O)(=O)c1ccccc1 | – | > 100 µM | –
88 | O=C1c2cccc3cccc(c23)C(=O)N1c1ccccc1Cl | > 100 µM (inactive) | – | –
89 | CC(=O)Nc1ccc(OCC(=O)N2CCC(Cc3ccccc3)CC2)cc1 | – | > 100 µM | –
90 | Cc1ccc(-c2nc3ccc(NS(=O)(=O)c4ccccc4)cc3[nH]2)o1 | > 100 µM (inactive) | – | –
91 | Cc1cc(C(C)(C)C)oc1C(=O)N(CC(=O)NC1CCCC1)c1c(C)cccc1C | > 100 µM (inactive) | > 100 µM | –
